Converted amounts (≈) assume the structure as drawn. Like-named read-outs stand apart in the source and are kept apart here.
What was measured:
P. acnes NCTC 737 [1] = experiment: Minimum bactericidal concentration (MBC) assay; assay type: cell-based, Propionibacterium acnes; details: compound in DMSO, triplicate
Procedure: The first test micro-organism used was Propionibacterium acnes NCTC 737. This is a propionibacterial strain and is the type strain of the […]; it is fully susceptible to antibiotics.
The propionibacteria were cultured and maintained on Wilkins-Chalgren Anaerobe Medium (agar and broth) at pH 6.0; all cultures were incubated anaerobically at 37° C. for 72 hours.
This assay, normally carried out after an MIC assay, determines the minimum concentration of a compound that is lethal to the micro-organism being tested.
These samples were then individually sub-cultured on antibiotic-free agar medium, under the incubation conditions described above. Following incubation they were examined visually for microbial growth.
DDA assays, as described above, were carried out using as the test formulation the gel prepared in Example 2B above. Also tested was the Example 2B gel minus the Klucel™ thickener, which was also subjected to MIC and MBC assays. For the DDAs, which were performed in triplicate, 100 μl of the relevant formulation was loaded onto each disc, and zones of inhibition were recorded after 3 days' anaerobic incubation at 37° C. The MIC and MBC tests were performed in duplicate and the results recorded after 3 days and 7 days respectively, post-subculture onto drug-free medium.
(§1) The compounds copper (II) usnate (Just for Today Ltd), sodium usnate (Yick-Vic Chemicals) and usnic acid (Sigma-Aldrich) were tested against P. acnes NCTC 737, using MIC, MBC and DDA assays as described above. For copper usnate and usnic acid, supplemented DDA assays were also carried out. DMSO was used as the solvent for all three test compounds. For the DDAs, 200 μg of the relevant test compound was loaded onto each disc. The MIC and MBC assays were conducted in triplicate, as were the DDAs for copper usnate.

S. mutans ATCC 25175 = experiment: MBC assay; assay type: cell-based, Streptococcus mutans; details: Wilkins-Chalgren broth pH 7 (±0.2)
Description: (a) staphylococci. The Staphylococcus aureus strain used was ATCC 29213. S. aureus and other staphylococci are common causes of a wide range of skin, skin structure and wound infections; S. aureus is also known to exacerbate eczema. The ATCC 29213 strain is known to be susceptible to beta-lactam antibiotics such as methicillin. The Staphylococcus epidermidis strain used was NCTC 11047. Staph. epidermidis forms part of the resident flora of skin and is an opportunistic pathogen which can cause biofilms to grow for instance on plastic surgical implants such as catheters. Unless otherwise stated, the staphylococci were cultured and maintained on Mueller-Hinton Medium (agar and broth) at pH 7.2; cultures were incubated aerobically at 37° C. for 19-20 hours, at pH 7 (±0.2). (b) C. striatum NCTC 764. Corynebacterium striatum is closely related to organisms (aerobic diphtheroids of the genus Corynebacterium) that cause body odour. It was cultured and maintained on Mueller-Hinton medium (agar and broth). All cultures were incubated aerobically at 37° C. for 72 hours, at pH 7 (±0.2). (c) streptococci. The strains tested were S. mutans ATCC 25175 and S. pyogenes ATCC 12344. S. mutans is a Gram-positive, microaerophilic bacterium which plays a significant role in dental caries and in infective endocarditis. Streptococcus pyogenes is associated with skin, soft tissue, burn and wound infections. […]

P. acnes NCTC 737 [2] = experiment: Supplemented disc diffusion assay (lipid or salt); assay type: cell-based, Propionibacterium acnes; details: 200 μg compound per disc; for zone of inhibition at 200 µg/disc: Cutibacterium acnes, NCTC737
Procedure: A sterile paper disc was impregnated with a sample of the test compound in a suitable solvent and 30 minutes allowed for the solvents to evaporate (where possible). The disc was then placed on an agar plate onto which the test micro-organism had been inoculated. The plate was then incubated under the conditions described above, following which it was examined visually for signs of microbial growth. If the test compound had antimicrobial activity, a circular zone of no growth would be obtained around the disc. The diameter of this zone of “inhibition” was measured using a ProtoCOL™ automated zone sizer (Synbiosis, Cambridge, UK). In general, a greater diameter and/or area of the zone of inhibition indicates a greater antimicrobial activity in the relevant test compound, although other factors such as test compound mobility through the agar gel may also influence the result.
The DDA test may be carried out using an agar gel supplemented with lipid and/or salt to simulate some of the major components present in human skin and to assess whether these substances might affect the antimicrobial activity observed for the test compound. Performance under these conditions can provide a more reliable indication of activity on topical application. […]
as §1

SMILES	MBC (P. acnes NCTC 737 [1]; Cutibacterium acnes, NCTC737, read-out: MBC) [µg/mL]	MBC (S. mutans ATCC 25175; Streptococcus mutans, ATCC25175, read-out: MBC) [µg/mL]	zone of inhibition at 200 µg/disc (P. acnes NCTC 737 [2]; medium +1% NaCl, read-out: DDA zone diameter, +1% NaCl) [mm]	zone of inhibition at 200 µg/disc (P. acnes NCTC 737 [2]; medium +1% triolein, read-out: DDA zone diameter, +1% triolein) [mm]	MBC (P. acnes NCTC 737 [1]) [µg/mL]	MBC (S. mutans ATCC 25175) [µg/mL]	DDA zone diameter, +1% NaCl (P. acnes NCTC 737 [2]; medium +1% NaCl) [mm]	DDA zone diameter, +1% triolein (P. acnes NCTC 737 [2]; medium +1% triolein) [mm]
CC(=O)c1c(O)c(C)c(O)c2c1OC1=CC(=O)C(C(C)=O)C(=O)C12C (centres unmarked) [Usnic acid, 2,6-diacetyl-7,9-dihydroxy-8,9b-dimethyl-1,3(2H,9bh)-dibenzofurandione]	31.2 (≈ 90.8 µM)	125 (≈ 363 µM)	29.8	10.9	–	–	–	–
CC(=O)c1c([O-])c(C)c([O-])c2c1OC1=CC(=O)C(C(C)=O)C(=O)C12C.[Cu+2] (centres unmarked) [Copper usnate, copper (II) usnate]	–	–	–	–	1.95	31.25	42.9 ± 0.4	27.4 ± 1.5
